Measured values from paper PMC4867616, “Imaging of Cerebral Amyloid Angiopathy with Bivalent ^99mTc-Hydroxamamide Complexes” (Scientific Reports, 2016).
Where “and” joins values, the source holds several entries; their conditions need not be identical. Equal entries are not always repeated. Where two headings read alike, the source gives them in different places.

Assays:
[1] = target: T1, Aβ depositions in human CAA brain sections (Homo sapiens, UniProt P05067); experiment: In vitro autoradiography of human CAA brain sections; type: binding; conditions: for Labeling of Aβ depositions in brain sections from another patient with CAA: patient with CAA (person)
T1 construct: consistent with the immunohistochemical staining pattern observed in the same brain sections with anti-Aβ(1–40) antibody; from tissue; host or cells: post-mortem human brain, autopsy-confirmed CAA cases
Description: (§1) Six micrometer thick serial human brain sections of paraffin-embedded blocks were used for autoradiography. To completely deparaffinize the sections, they were incubated in xylene for 30 min two times and in 100% EtOH for 1 min two times. Subsequently, they were subjected to 1-min incubation in 90% EtOH and 1-min incubation in 70% EtOH, followed by a 5-min wash in water. Each slide was incubated with a 50% EtOH solution of [^99mTc]SB2A or [^99mTc]BT2B (370 kBq/mL) at room temperature for 1 h. […] The sections were washed in 50% EtOH for 3 min two times and exposed to a BAS imaging plate (Fuji Film, Tokyo, Japan) for 2 h. Autoradiographic images were obtained using a BAS5000 scanner system (Fuji Film). After autoradiographic examination, the same sections were immunostained by an antibody against Aβ(1–40) to confirm the presence of Aβ depositions. For immunohistochemical staining of Aβ(1–40), the sections were autoclaved for 15 min in 0.01 M citric acid buffer (pH 6.0) to activate the antigen. After three 5-min incubations in PBS-Tween 20 (PBST), they were incubated with anti-Aβ(1–40) primary antibody (BA27; Wako, Osaka, Japan) at room temperature overnight. Subsequently, they were incubated in PBST for 5 min three times, and incubated with biotinylated goat anti-mouse IgG (Wako) at room temperature for 3 h. After three 5-min incubations in PBST, the sections were incubated with Streptavidin-Peroxidase complex at room temperature for 30 min. After three 5-min incubations in PBST, they were incubated with diaminobenzidine (Merck, Hesse, Germany) as a chromogen for 5 min. After washing with water, the sections were observed under a microscope (BIOREVO BZ-9000; Keyence Corp., Osaka, Japan).
as §1, with “In vitro autoradiography of human CAA brain sections. Postmortem brain tissues from autopsy-confirmed cases of CAA (person, and person) and a control (person) were obtained from the Graduate School of Medicine, Kyoto University, National Cerebral and Cardiovascular Center, and BioChain Institute Inc. (California, USA), respectively. Experiments were performed according to the regulations of the ethics committee of Kyoto University. Six” for “Six”, “serial” for “serial human brain”, “Aβ(1-40)” for “Aβ(1–40)”, “Aβ(1-40),” for “Aβ(1–40),”, “anti-Aβ(1-40)” for “anti-Aβ(1–40)”, “After three 5-min incubations in PBST, the sections were incubated with Streptavidin-Peroxidase complex at room temperature for 30 min. After three 5-min incubations in PBST, they were incubated with diaminobenzidine (Merck, Hesse, Germany) as a chromogen for 5 min. After washing with water, the sections were observed under a microscope (BIOREVO BZ-9000; Keyence Corp., Osaka, Japan).” left out

CAA in Tg2576 mice = target: T2, CAA in Tg2576 mice (Homo sapiens, UniProt P05067); experiment: SPECT/CT imaging in Tg2576 and wild-type mice; type: in vivo; conditions: 30 min postinjection
T2 construct: Aβ(1–40) aggregates, the predominant amyloid found in CAA; tissue Taconic Farms, Inc. (New York, USA); host or cells: brain of living female Tg2576 transgenic mice
Description: SPECT/CT imaging. Tg2576 transgenic mice (female, 27 or 30 months old) and wild-type mice (female, 27 or 30 months old) were used as the Alzheimer’s model and age-matched control, respectively. A saline solution (200 μL) of [^99mTc]SB2A (29.6-55.5 MBq) containing EtOH (40 μL) was injected directly into the tail vein. At 30 or 120 min postinjection, SPECT and CT images with the brain region as the ﬁeld of view were collected using the U-SPECT-II/CT system (MILabs, Utrecht, Netherlands) with 0.6-mm pinhole collimators (SPECT conditions, 30 min × 2 frames; CT conditions, accurate full angle mode in 65 kV/615 µA). The mouse was maintained under isoflurane anesthesia, while SPECT and then CT image data were collected. SPECT images were reconstructed by the OSEM method (16 subsets, 6 iterations) with a 0.4-mm Gaussian ﬁlter.

[2] = normal mice, i.v., mean (SD), 5 animals, cited from earlier work

T1 sequence (P05067 672-711 limits assumed): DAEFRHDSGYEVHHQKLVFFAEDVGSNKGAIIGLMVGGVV
T2 sequence (P05067 672-711 limits assumed): as above

| Compound | Blocking of labeling of Aβ depositions with excess nonradioactive PIB ([1]; adjacent CAA brain section, PIB 1.0 mM) | Accumulation of radioactivity in control brain sections (autoradiography) ([1]; brain section from a healthy control (person)) | Labeling of Aβ depositions in CAA brain sections (autoradiography) ([1]; brain section from a patient with CAA (person), 370 kBq/mL, 1 h) | Labeling of Aβ depositions in brain sections from another patient with CAA [1] | Distribution in brains of Tg2576 versus wild-type mice (in vivo SPECT/CT) (CAA in Tg2576 mice) | Biodistribution of radioactivity, Blood ([2]; 2 min after injection) | Biodistribution of radioactivity, Brain ([2]; 2 min after injection) | Biodistribution of radioactivity, Blood ([2]; 10 min after injection) | Biodistribution of radioactivity, Brain ([2]; 10 min after injection) | Biodistribution of radioactivity, Blood ([2]; 30 min after injection) | Biodistribution of radioactivity, Brain ([2]; 30 min after injection) | Biodistribution of radioactivity, Blood ([2]; 60 min after injection) | Biodistribution of radioactivity, Brain ([2]; 60 min after injection) |
| --- | --- | --- | --- | --- | --- | --- | --- | --- | --- | --- | --- | --- | --- |
| CN(C)c1ccc(/C=C/c2ccc(C3=N[O][99Tc-]4(=[O])([NH]3)[NH2+]C(c3ccc(/C=C/c5ccc(N(C)C)cc5)cc3)=N[O]4)cc2)cc1 (single isomer, unassigned) [[^99mTc]SB2A] | blocked to a large extent | almost no accumulation of radioactivity | intensively labeled Aβ depositions | intensively labeled Aβ depositions | not differentially distributed | 14.28 (1.90) % injected dose per gram | 0.28 % injected dose per gram and 0.28 (0.03) % injected dose per gram | 7.50 (0.51) % injected dose per gram | 0.17 (0.02) % injected dose per gram | 5.13 % injected dose per gram and 5.13 (0.57) % injected dose per gram | 0.12 (0.01) % injected dose per gram | 4.17 (0.24) % injected dose per gram | 0.11 (0.01) % injected dose per gram |
| CN(C)c1ccc(-c2nc3ccc(C4=N[O][99Tc-]5(=[O])([NH]4)[NH2+]C(c4ccc6nc(-c7ccc(N(C)C)cc7)sc6c4)=N[O]5)cc3s2)cc1 [[^99mTc]BT2B] | – | – | – | intensively labeled Aβ depositions | – | – | – | – | – | – | – | – | – |
